Assay results reported in patent publication US9896433B2, “Antiviral compounds” (priority 2013, dated 2018).

Columns and labels:
Assay in all cases: microbe, parasite or virus in culture
[1] = test system: Pseudotyped HCV GT1a particles (HCVpp, H77 strain E1/E2); assay type: cell-based, Hepatitis C virus GT1a H77 strain; details: Hepatitis C virus, 72 h, read-out: HCVpp GT-1a (EC50, μM)
[2] = test system: pseudotyped VSV G particles (VSVpp); assay type: cell-based; details: Vesicular stomatitis virus, 72 h, read-out: VSVpp (EC50, μM)
[3] = test system: Pseudotyped HCV GT1b particles (HCVpp, Con1 strain E1/E2); assay type: cell-based, Hepatitis C virus GT1b Con1 strain; details: Hepatitis C virus, 72 h, read-out: HCVpp GT-1b (EC50, μM)

SMILES	EC50 [1]	EC50 [2]	EC50 [3]
Nc1nc(Nc2ccnc(Cl)c2)n[nH]1 [Compound 1, N^3-(2-Chloro-pyridin-4-yl)-1H-[1,2,4]triazole-3,5-diamine]	2.76 µM	≥ 100 µM	48.9 µM
Nc1nc(Nc2ccc(C(F)(F)F)nc2)n[nH]1 [Compound 2, N^3-(6-Trifluoromethyl-pyridin-3-yl)-1H-[1,2,4] triazole-3,5-diamine]	75.4 µM	≥ 100 µM	≥ 100 µM
Nc1nc(Nc2cc(Cl)nc(Cl)c2)n[nH]1 [Compound 3, N^3-(2,6-Dichloro-pyridin-4-yl)-1H-[1,2,4]triazole-3,5-diamine]	0.191 µM	≥ 100 µM	7.08 µM
Nc1nc(Nc2cccc(C(F)(F)F)n2)n[nH]1 [Compound 4, N^3-(6-Trifluoromethyl-pyridin-2-yl)-1H-[1,2,4] triazole-3,5-diamine]	≥ 100 µM	≥ 100 µM	≥ 100 µM
CC(C)(C)c1csc(Nc2n[nH]c(N)n2)n1 [Compound 5, N^3-(4-tert-Butyl-thiazol-2-yl)-1H-[1,2,4]triazole-3,5-diamine]	≥ 100 µM	≥ 100 µM	–
Nc1nc(Nc2cc(C(F)(F)F)ccn2)n[nH]1 [Compound 6, N^3-(4-Trifluoromethyl-pyridin-2-yl)-1H-[1,2,4] triazole-3,5-diamine]	62.2 µM	≥ 100 µM	–
Nc1nc(Nc2csc(Cl)c2)n[nH]1 [Compound 7, N^3-(5-Chloro-thiophen-3-yl)-1H-[1,2,4]triazole-3,5-diamine]	16.4 µM	≥ 100 µM	–
Cn1nc(Cl)cc(Nc2n[nH]c(N)n2)c1=O [Compound 8, 4-(5-Amino-1H-[1,2,4]triazol-3-ylamino)-6-chloro-2-methyl-2H-pyridazin-3-one]	–	≥ 100 µM	≥ 100 µM
Nc1nc(Nc2ccc3c(=O)[nH]ncc3c2)n[nH]1 [Compound 9, 6-(5-Amino-1H-[1,2,4]triazol-3-ylamino)-2H-phthalazin-l-one]	–	≥ 100 µM	4.71 µM
Cn1ncc2cc(Nc3n[nH]c(N)n3)ccc2c1=O [Compound 10, 6-(5-Amino-1H-[1,2,4]triazol-3-ylamino)-2-methyl-2H-phthalazin-1-one]	–	≥ 100 µM	3.68 µM
Nc1nc(Nc2ccc3nccn3c2)n[nH]1 [Compound 11, N^3-Imidazo[1,2-a]pyridin-6-yl-1H-[1,2,4]triazole-3,5-diamine]	22.3 µM	≥ 100 µM	–
Nc1nc(Nc2ccn3ccnc3c2)n[nH]1 [Compound 12, N^3-Imidazo[1,2-a]pyridin-7-yl-1H-[1,2,4]triazole-3,5-diamine]	–	> 100 µM	> 100 µM
